This test addresses human kinase Mps-1 (Homo sapiens (Human), UniProt P33981). The test can be described thus: Mps-1 kinase assay (TR-FRET). To be noted: N-terminally GST-tagged human full length recombinant Mps-1; 10 μM ATP; 1 μM biotinylated peptide substrate; read-out: Mps1 IC50. Format: biochemical. In a few lines:
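Read-out: TR-FRET from Europium-labelled anti-phospho(Ser/Thr) antibody to SA-XLent after 1 h detection incubation at 22° C. Inhibition of kinase activity measured.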
A general note: In TR-FRET formats the signal depends on donor and acceptor labels being close together.
Chain of human kinase Mps-1 (P33981 whole entry): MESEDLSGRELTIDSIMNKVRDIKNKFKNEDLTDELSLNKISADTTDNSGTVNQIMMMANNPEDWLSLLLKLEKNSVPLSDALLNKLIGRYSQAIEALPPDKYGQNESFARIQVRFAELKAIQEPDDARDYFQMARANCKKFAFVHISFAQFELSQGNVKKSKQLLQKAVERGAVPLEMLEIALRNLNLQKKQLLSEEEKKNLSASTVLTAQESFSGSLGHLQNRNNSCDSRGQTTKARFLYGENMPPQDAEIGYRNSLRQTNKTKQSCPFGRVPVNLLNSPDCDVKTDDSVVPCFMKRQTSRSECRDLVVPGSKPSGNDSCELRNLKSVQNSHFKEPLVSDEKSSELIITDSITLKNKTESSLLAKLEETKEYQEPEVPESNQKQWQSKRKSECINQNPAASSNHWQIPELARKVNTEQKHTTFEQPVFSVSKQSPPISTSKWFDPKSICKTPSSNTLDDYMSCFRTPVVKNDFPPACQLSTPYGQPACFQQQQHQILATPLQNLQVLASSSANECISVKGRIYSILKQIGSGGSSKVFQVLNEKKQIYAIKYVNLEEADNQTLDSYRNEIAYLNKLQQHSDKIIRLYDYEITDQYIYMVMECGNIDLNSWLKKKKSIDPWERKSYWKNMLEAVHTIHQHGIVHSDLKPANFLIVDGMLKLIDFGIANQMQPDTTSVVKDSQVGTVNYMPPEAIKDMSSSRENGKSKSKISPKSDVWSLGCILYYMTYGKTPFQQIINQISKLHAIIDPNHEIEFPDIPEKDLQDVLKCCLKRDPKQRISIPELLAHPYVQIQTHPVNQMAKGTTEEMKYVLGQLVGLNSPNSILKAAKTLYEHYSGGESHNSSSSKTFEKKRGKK
In general, IC50 refers to the midpoint of a concentration-inhibition curve. On to `CNC(=O)c1ccc(-n2cnc3c(NCC4CCOCC4)cc(Oc4cccc(F)c4F)cc32)cc1C` [Example 84, 4-{6-(2,3-difluorophenoxy)-4-[(tetrahydro-2H-pyran-4-ylmethyl)amino]-1H-benzimidazol-1-yl}-N,2-dimethylbenzamide], for which the IC50 is 3.4 nM.
`CCNC(=O)c1ccc(-n2cnc3c(NCC4CCOCC4)cc(Oc4cccc(F)c4F)cc32)cc1C` [Example 85, 4-{6-(2,3-Difluorophenoxy)-4-[(tetrahydro-2H-pyran-4-ylmethyl)amino]-1H-benzimidazol-1-yl}-N-ethyl-2-methylbenzamide]: the IC50 turned out to be 3.3 nM.
Regarding `CNC(=O)c1ccc(-n2cnc3c(NCC4CCOCC4)cc(Oc4ccc(OC)cc4F)cc32)cc1C` [Example 86, 4-{6-(2-fluoro-4-methoxyphenoxy)-4-[(tetrahydro-2H-pyran-4-ylmethyl)amino]-1H-benzimidazol-1-yl}-N,2-dimethylbenzamide], the half-maximal inhibitory concentration (IC50) was found to be 7 nM.
Regarding `CCNC(=O)c1ccc(-n2cnc3c(NCC4CCOCC4)cc(Oc4ccc(OC)cc4F)cc32)cc1C` [Example 87, N-ethyl-4-{6-(2-fluoro-4-methoxyphenoxy)-4-[(tetrahydro-2H-pyran-4-ylmethyl)amino]-1H-benzimidazol-1-yl}-2-methylbenzamide], the IC50 was determined as 11.4 nM.
Turning to `CNC(=O)c1ccc(-n2cnc3c(NCCC(F)(F)F)cc(Oc4ccc(OC)cc4F)cc32)cc1C` [Example 88, 4-{6-(2-fluoro-4-methoxyphenoxy)-4-[(3,3,3-trifluoropropyl)amino]-1H-benzimidazol-1-yl}-N,2-dimethylbenzamide], the IC50 was determined as 6.7 nM.
For `CCNC(=O)c1ccc(-n2cnc3c(NCCC(F)(F)F)cc(Oc4ccc(OC)cc4F)cc32)cc1C` [Example 89, N-ethyl-4-{6-(2-fluoro-4-methoxyphenoxy)-4-[(3,3,3-trifluoropropyl)amino]-1H-benzimidazol-1-yl}-2-methylbenzamide], the IC50 was found to be 10.8 nM.
With `Cc1cc(-n2cnc3c(NCCC(F)(F)F)cc(Oc4ccc(O)cc4F)cc32)ccc1C(=O)NC1CC1` [Example 90, N-cyclopropyl-4-{6-(2-fluoro-4-hydroxyphenoxy)-4-[(3,3,3-trifluoropropyl)amino]-1H-benzimidazol-1-yl}-2-methylbenzamide], the IC50 was 1.1 nM.
`Cc1cc(-n2cnc3c(NCCC(F)(F)F)cc(Oc4cccc(F)c4O)cc32)ccc1C(=O)NC1CC1` [Example 91, N-cyclopropyl-4-{6-(3-fluoro-2-hydroxyphenoxy)-4-[(3,3,3-trifluoropropyl)amino]-1H-benzimidazol-1-yl}-2-methylbenzamide]: the IC50 stood at 0.4 nM.
To `CNC(=O)c1ccc(-n2cnc3c(NCCC(F)(F)F)cc(Oc4cccc(F)c4O)cc32)cc1C` [Example 92, 4-{6-(3-fluoro-2-hydroxyphenoxy)-4-[(3,3,3-trifluoropropyl)amino]-1H-benzimidazol-1-yl}-N,2-dimethylbenzamide] belongs 3 nM.
For the molecule `CCNC(=O)c1ccc(-n2cnc3c(NCCC(F)(F)F)cc(Oc4cccc(F)c4O)cc32)cc1C` [Example 93, N-ethyl-4-{6-(3-fluoro-2-hydroxyphenoxy)-4-[(3,3,3-trifluoropropyl)amino]-1H-benzimidazol-1-yl}-2-methylbenzamide], the IC50 was 4.1 nM.
To `CNC(=O)c1ccc(-n2cnc3c(NCCC(F)(F)F)cc(Oc4cccc(O)c4)cc32)cc1C` [Example 94, 4-{6-(3-hydroxyphenoxy)-4-[(3,3,3-trifluoropropyl)amino]-1H-benzimidazol-1-yl}-N,2-dimethylbenzamide] belongs 3.1 nM; to `CCNC(=O)c1ccc(-n2cnc3c(NCCC(F)(F)F)cc(Oc4cccc(O)c4)cc32)cc1C` [Example 95, N-ethyl-4-{6-(3-hydroxyphenoxy)-4-[(3,3,3-trifluoropropyl)amino]-1H-benzimidazol-1-yl}-2-methylbenzamide], 5.6 nM.
Take `Cc1cc(-n2cnc3c(NCCC(F)(F)F)cc(Oc4cccc(S(F)(F)(F)(F)F)c4)cc32)ccc1C(=O)NC1CC1` [Example 96, N-cyclopropyl-2-methyl-4-{6-[3-(pentafluoro-lambda^6-sulfanyl)phenoxy]-4-[(3,3,3-trifluoropropyl)amino]-1H-benzimidazol-1-yl}benzamide]: the IC50 turned out to be 4.8 nM.
Turning to `CNC(=O)c1ccc(-n2cnc3c(NCCC(F)(F)F)cc(Oc4ccc(O)cc4F)cc32)cc1C` [Example 97, 4-{6-(2-fluoro-4-hydroxyphenoxy)-4-[(3,3,3-trifluoropropyl)amino]-1H-benzimidazol-1-yl}-N,2-dimethylbenzamide], the IC50 turned out to be 4.6 nM.
Take `CCNC(=O)c1ccc(-n2cnc3c(NCCC(F)(F)F)cc(Oc4ccc(O)cc4F)cc32)cc1C` [Example 98, N-ethyl-4-{6-(2-fluoro-4-hydroxyphenoxy)-4-[(3,3,3-trifluoropropyl)amino]-1H-benzimidazol-1-yl}-2-methylbenzamide]: the IC50 came to 4.6 nM.
For `CNC(=O)c1ccc(-n2cnc3c(NCCC(F)(F)F)cc(Oc4ccc(O)c(F)c4)cc32)cc1C` [Example 99, 4-{6-(3-fluoro-4-hydroxyphenoxy)-4-[(3,3,3-trifluoropropyl)amino]-1H-benzimidazol-1-yl}-N,2-dimethylbenzamide], the IC50 amounted to 2.4 nM.
Take `CCNC(=O)c1ccc(-n2cnc3c(NCCC(F)(F)F)cc(Oc4ccc(O)c(F)c4)cc32)cc1C` [Example 100, N-ethyl-4-{6-(3-fluoro-4-hydroxyphenoxy)-4-[(3,3,3-trifluoropropyl)amino]-1H-benzimidazol-1-yl}-2-methylbenzamide]: the IC50 worked out at 3.4 nM.
With `COc1ccc(C(=O)c2cc(NCCC(F)(F)F)c3ncn(-c4ccc(C(=O)NC5CC5)c(C)c4)c3c2)cc1F` [Example 101, N-cyclopropyl-4-{6-(3-fluoro-4-methoxybenzoyl)-4-[(3,3,3-trifluoropropyl)amino]-1H-benzimidazol-1-yl}-2-methylbenzamide], the IC50 amounted to 6.4 nM.
For `COc1ccc(C(O)c2cc(NCCC(F)(F)F)c3ncn(-c4ccc(C(=O)NC5CC5)c(C)c4)c3c2)cc1F` (stereo not drawn) [Example 102, N-cyclopropyl-4-{6-[(3-fluoro-4-methoxyphenyl)(hydroxy)methyl]-4-[(3,3,3-trifluoropropyl)amino]-1H-benzimidazol-1-yl}-2-methylbenzamide], the half-inhibitory concentration (IC50) was determined as 1.8 nM.
To `C=C(c1ccc(OC)c(F)c1)c1cc(NCCC(F)(F)F)c2ncn(-c3ccc(C(=O)NC4CC4)c(C)c3)c2c1` [Example 104, N-cyclopropyl-4-{6-[1-(3-fluoro-4-methoxyphenyl)vinyl]-4-[(3,3,3-trifluoropropyl)amino]-1H-benzimidazol-1-yl}-2-methylbenzamide] belongs 2.1 nM.
In the case of `COc1ccc(Cc2cc(NCCC(F)(F)F)c3ncn(-c4ccc(C(=O)NC5CC5)c(C)c4)c3c2)cc1F` [Example 106, N-cyclopropyl-4-{6-(3-fluoro-4-methoxybenzyl)-4-[(3,3,3-trifluoropropyl)amino]-1H-benzimidazol-1-yl}-2-methylbenzamide], the IC50 was determined as 0.9 nM.
To `Cc1ccc(F)cc1Oc1cc(NCCC(F)(F)F)c2ncn(-c3ccc(C(=O)NC4CC4)c(C)c3)c2c1` [Example 107, N-cyclopropyl-4-{6-(5-fluoro-2-methylphenoxy)-4-[(3,3,3-trifluoropropyl)amino]-1H-benzimidazol-1-yl}-2-methylbenzamide] belongs 5.3 nM; to `Cc1cc(-n2cnc3c(NCCC(F)(F)F)cc(C(=O)c4ccc(O)c(F)c4)cc32)ccc1C(=O)NC1CC1` [Example 108, N-cyclopropyl-4-{6-(3-fluoro-4-hydroxybenzoyl)-4-[(3,3,3-trifluoropropyl)amino]-1H-benzimidazol-1-yl}-2-methylbenzamide], 17 nM; to `Cc1cc(-n2cnc3c(NCCC(F)(F)F)cc(Oc4cccc(C(F)F)c4)cc32)ccc1C(=O)NC1CC1` [Example 109, N-cyclopropyl-4-{6-[3-(difluoromethyl)phenoxy]-4-[(3,3,3-trifluoropropyl)amino]-1H-benzimidazol-1-yl}-2-methylbenzamide], 2.8 nM.
On to `COc1ccccc1C(=O)c1cc(NCCC(F)(F)F)c2ncn(-c3ccc(C(=O)NC4CC4)c(C)c3)c2c1` [Example 110, N-cyclopropyl-4-{6-(2-methoxybenzoyl)-4-[(3,3,3-trifluoropropyl)amino]-1H-benzimidazol-1-yl}-2-methylbenzamide], for which the 50% inhibitory concentration (IC50) amounted to 12 nM.
With `Cc1cc(-n2cnc3c(NCCC(F)(F)F)cc(Oc4cccc(O)c4)cc32)ccc1C(=O)NC1CC1` [Example 111, N-cyclopropyl-4-{6-(3-hydroxyphenoxy)-4-[(3,3,3-trifluoropropyl)amino]-1H-benzimidazol-1-yl}-2-methylbenzamide], the IC50 turned out to be 0.6 nM.
For `CNC(=O)c1ccc(-n2cnc3c(NCC4CCOCC4)cc(Oc4ccc(O)c(F)c4)cc32)cc1C` [Example 112, 4-{6-(3-fluoro-4-hydroxyphenoxy)-4-[(tetrahydro-2H-pyran-4-ylmethyl)amino]-1H-benzimidazol-1-yl}-N,2-dimethylbenzamid], the IC50 turned out to be 3.6 nM.
Take `CCNC(=O)c1ccc(-n2cnc3c(NCC4CCOCC4)cc(Oc4ccc(O)c(F)c4)cc32)cc1C` [Example 113A, N-ethyl-4-{6-(3-fluoro-4-hydroxyphenoxy)-4-[(tetrahydro-2H-pyran-4-ylmethyl)amino]-1H-benzimidazol-1-yl}-2-methylbenzamide]: the IC50 came out at 6.3 nM.
`CCNC(=O)c1ccc(-n2cnc3c(NCC4CCOCC4)cc(Oc4ccc(OC)c(SC)c4)cc32)cc1C` [Example 113B, N-ethyl-4-{6-[4-methoxy-3-(methylsulfanyl)phenoxy]-4-[(tetrahydro-2H-pyran-4-ylmethyl)amino]-1H-benzimidazol-1-yl}-2-methylbenzamide]: the IC50 was found to be 54 nM.
As for `Cc1cc(-n2cnc3c(NCC4CCOCC4)cc(Oc4ccc(O)c(F)c4)cc32)ccc1C(=O)NC1CC1` [Example 114A, N-cyclopropyl-4-{6-(3-fluoro-4-hydroxyphenoxy)-4-[(tetrahydro-2H-pyran-4-ylmethyl)amino]-1H-benzimidazol-1-yl}-2-methylbenzamide], the IC50 worked out at 0.7 nM.
